Source: article PMC8305076, “Comprehensive Evaluation of Biological Effects of Pentathiepins on Various Human Cancer Cell Lines and Insights into Their Mode of Action” (International Journal of Molecular Sciences, 2021)

Key:
Type in all cases: cell-based, human
[1] = system: Siso; experiment: annexin V-FITC/PI apoptosis assay; conditions: IC90, 24 h
Description: (§1) As reported in our earlier publication, a representative pentathiepin was capable of inducing apoptosis in cancer cell lines. Here, we tested compounds 1–6 for their ability to trigger this particular modality of cell death in a subset of four cell lines: HAP-1, HAP-1.KO.GPx1, A2780, and Siso. A flow cytometric assay was performed, allowing us to discriminate between viable, early, and late apoptotic cells (representative dot plots can be found in Figure S47). FITC-labeled annexin V was used to assess the externalization of phosphatidyl serine as a hallmark of early apoptosis induction. The addition of propidium iodide (PI) enabled the detection of late apoptotic cells as it only permeates porous cell membranes and exerts fluorescence once bound to double-stranded DNA.
(§2) The annexin V-FITC/PI assay, which discriminates between viable, early, and late apoptotic cells within a sample population, was performed according to the manufacturer’s instructions (Miltenyi Biotec, Teterow, Germany). Briefly, 125,000 cells were seeded in 2 mL per well of a 6-well plate, allowed to adhere overnight, and subsequently treated with the respective pentathiepin (IC90, see Table S4) diluted in 3 mL of medium. After incubation periods of 6, 24, or 48 h, the cells were harvested, washed with the provided binding buffer, and stained with the annexin V-FITC reagent for 20 min at room temperature (RT) in the dark. After another washing step, the pellet was resuspended, and PI was added immediately before flow cytometric measurement at λEx/Em = 488/525 ± 50 nm for FITC and λEx/Em = 488/655–730 nm for PI with the MACSquant Analyzer 10 (Miltenyi Biotec, Teterow, Germany).

[2] = system: HAP-1; experiment: annexin V-FITC/PI apoptosis assay; conditions: IC90, 24 h
Description: as §1, §2

[3] = system: YAPC; experiment: DCFDA flow cytometric ROS assay, acute; conditions: 25 µM, 15 min
Description: According to the hypothesized mechanism of action (see Figure 3), pentathiepins can create oxidative stress via generation of reactive sulfur precursors. We have previously reported that a representative pentathiepin can increase the intracellular levels of ROS in two cancer cell lines. This effect was thus further evaluated with the new compounds in seven cell lines (Figure 8). The cells were incubated for 15 min with 25.0 µM pentathiepin and subsequently analyzed by using the intracellular ROS sensor 2′,7′-dichlorodihydrofluorescein diacetate (DCFDA) by flow cytometry.
In order to quantify intracellular ROS, we performed a flow cytometric assay based on the ROS-sensor 2′,7′-dichlorofluorescein diacetate (DCFDA). For acute effects of pentathiepins on intracellular ROS levels, the cells were stained with DCFDA first and subsequently incubated with 25 µM of compound for 10 min. […] Per condition, 250,000 cells were seeded in 2 mL of medium per well of a 6-well plate and allowed to adhere overnight. For measurement of acute ROS, the cells were stained with 1 mL of a 20 µM DCFDA-PBS solution for 30 min under standard incubation conditions. Afterwards, the solution was discarded, and the monolayer washed twice with 1 mL of PBS before 3 mL of medium containing 25 µM of pentathiepin was added for 10 min at 37 °C. After removing the solution and washing again with PBS, the cells were detached by using 0.5 mL of a diluted trypsin/EDTA-PBS solution (25%) and harvested with 1 mL of culture medium by carefully rinsing the wells. The cell suspension was transferred to 1.5 mL tubes, centrifuged for 5 min at 500× g, and washed with 1 mL of PBS. After removing the supernatant, each pellet was resuspended in 0.5 mL of PBS for measurement via the MACSquant Analyzer 10 at λEx/Em = 488/530 nm. Relative ROS levels resulting from treatment with pentathiepin were calculated by relating the fluorescence intensity of treated samples to the negative control. For the experiments covering periods of 24 and 48 h, the cells were incubated with the compounds first and stained with DCFDA afterwards. To assess the influence of additional GSH, we included 3 or 30 µM GSH to the medium containing 25 µM of pentathiepin, and the protocol was followed as described.

[4] = system: A2780; experiment: cell cycle analysis (PI staining); conditions: IC90, 48 h

For `CCOc1c2c(c3ccc(C(=O)N4CCOCC4)cn13)SSSSS2` [Compound 3, (6-Ethoxy-[1,2,3,4,5]pentathiepino[6,7-a]indolizin-9-yl)(morpholino)methanone], the early apoptotic cells [1] was “about 20%”, the late apoptotic cells [1] was “about 20%” and the late apoptotic cells [2] was “up to 12%”.
In the case of `CCOc1c2c(c3ccc(C(=O)N4CCN(C(=O)c5ccc(F)cc5)CC4)cn13)SSSSS2` [Compound 5, (6-Ethoxy-[1,2,3,4,5]pentathiepino[6,7-a]indolizin-9-yl)(4-(4-fluorobenzoyl)piperazinyl)methanone], the “intracellular ROS levels” value [3] is reported as “the only increase was monitored after incubation with 5”.
For `CCOc1c2c(c3ccc(C(=O)N4CCN(S(=O)(=O)c5ccc(C)cc5)CC4)cn13)SSSSS2` [Compound 6, (6-Ethoxy-[1,2,3,4,5]pentathiepino[6,7-a]indolizin-9-yl)(4-tosylpiperazinyl)methanone], the “relative amount of sub G1-phase cells” value [4] was 30%.
